Legend:
[1] = biological target: Tyrosine-protein kinase SYK (Homo sapiens, UniProt P43405); test: Inhibition of SYK (unknown origin)
[2] = Lipophilicity, logD of compound in buffer:octanol (100:1) at pH 7.4 by shake flask method; type: physicochemical
[3] = Intrinsic clearance in rat hepatocytes measured per million cells; type: ADME, cell-based, Hepatocyte; settings: read-out: CLH
[4] = Intrinsic clearance in human liver microsomes; type: ADME, Microsome; settings: read-out: CLH
[5] = biological target: Voltage-gated inwardly rectifying potassium channel KCNH2 (Homo sapiens, UniProt Q12809); test: Inhibition of human ERG assessed as tail current by plate-based planar patch clamp assay
[6] = system: SUD4; test: Growth inhibition of human SU-DHL-4 cells after 72 hrs; type: functional
[7] = Clearance in Han Wistar rat at 2 umol/kg, po and 1 umol/kg, iv; type: ADME, organism-based; settings: in vivo, dose 1 µmol/kg
[8] = Volume of distribution at steady state in Han Wistar rat at 2 umol/kg, po and 1 umol/kg, iv; type: ADME, organism-based; settings: in vivo, dose 1 µmol/kg, read-out: Vdss
[9] = Oral bioavailability in Han Wistar rat at 2 umol/kg; type: ADME, organism-based; settings: in vivo, at 2 µmol/kg
[10] = Protein binding in Han Wistar rat plasma assessed as unbound fraction; type: ADME, cell-free
[11] = Clearance in Beagle dog at 2 umol/kg, po and 1 umol/kg, iv; type: ADME, organism-based, Canis lupus familiaris; settings: in vivo, dose 2 µmol/kg
[12] = Volume of distribution at steady state in Beagle dog at 2 umol/kg, po and 1 umol/kg, iv; type: ADME, organism-based, Canis lupus familiaris; settings: in vivo, dose 2 µmol/kg, read-out: Vdss
[13] = Oral bioavailability in Beagle dog at 2 umol/kg; type: ADME, organism-based, Canis lupus familiaris; settings: in vivo, at 2 µmol/kg
[14] = Protein binding in Beagle dog plasma assessed as unbound fraction; type: ADME, cell-free, Canis lupus familiaris
[15] = Intrinsic clearance in dog hepatocytes measured per million cells; type: ADME, cell-based, Canis lupus familiaris, Hepatocyte; settings: read-out: CLH
[16] = Clearance in Beagle dog at 2 umol/kg, po and 1 umol/kg, iv relative to hepatic blood flow; type: ADME, organism-based, Canis lupus familiaris; settings: in vivo, at 2 µmol/kg
[17] = Dissociation constant, pKa of the compound; type: physicochemical

Chain of Voltage-gated inwardly rectifying potassium channel KCNH2 (Q12809 whole entry): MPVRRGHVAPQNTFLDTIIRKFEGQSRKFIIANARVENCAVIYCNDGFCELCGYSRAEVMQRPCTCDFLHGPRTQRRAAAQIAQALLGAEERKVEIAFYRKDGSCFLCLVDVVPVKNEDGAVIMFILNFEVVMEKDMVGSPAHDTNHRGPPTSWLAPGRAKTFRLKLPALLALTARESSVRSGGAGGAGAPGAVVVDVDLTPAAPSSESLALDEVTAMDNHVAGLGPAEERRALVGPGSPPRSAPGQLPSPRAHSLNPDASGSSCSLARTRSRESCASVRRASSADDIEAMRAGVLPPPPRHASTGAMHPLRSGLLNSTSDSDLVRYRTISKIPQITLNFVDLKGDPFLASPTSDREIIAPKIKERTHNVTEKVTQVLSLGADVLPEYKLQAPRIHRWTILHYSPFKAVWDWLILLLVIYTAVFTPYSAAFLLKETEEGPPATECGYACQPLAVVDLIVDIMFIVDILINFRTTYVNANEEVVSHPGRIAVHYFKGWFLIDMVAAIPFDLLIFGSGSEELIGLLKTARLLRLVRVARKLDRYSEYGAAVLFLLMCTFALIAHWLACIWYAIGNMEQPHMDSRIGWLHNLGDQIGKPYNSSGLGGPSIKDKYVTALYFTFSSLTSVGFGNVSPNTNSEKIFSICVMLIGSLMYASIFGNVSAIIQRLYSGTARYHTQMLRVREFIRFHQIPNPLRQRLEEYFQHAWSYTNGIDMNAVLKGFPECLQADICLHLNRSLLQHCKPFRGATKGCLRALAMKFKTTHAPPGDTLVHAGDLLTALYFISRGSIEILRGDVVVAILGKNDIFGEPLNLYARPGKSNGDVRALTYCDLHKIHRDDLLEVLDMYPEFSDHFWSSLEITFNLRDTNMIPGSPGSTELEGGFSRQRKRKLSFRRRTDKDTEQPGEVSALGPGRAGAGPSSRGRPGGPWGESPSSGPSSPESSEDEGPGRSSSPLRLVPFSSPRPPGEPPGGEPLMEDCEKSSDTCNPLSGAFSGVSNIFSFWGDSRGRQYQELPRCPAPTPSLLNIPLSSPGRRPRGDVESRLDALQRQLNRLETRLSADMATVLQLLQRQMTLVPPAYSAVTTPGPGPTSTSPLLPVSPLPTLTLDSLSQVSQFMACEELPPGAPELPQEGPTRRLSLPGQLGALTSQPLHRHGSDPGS

Row | SMILES | IC50 [1] [nM] | logD [2] | hepatocyte CLint [3] [µL/min/1e6 cells] | microsomal CLint [4] [µL/min/mg] | IC50 [5] [nM] | GI50 [6] [nM] | other results
1 | CNC(=O)c1nn(C)c2ccc(Nc3nccc(-n4cc(O[C@H]5CCNC5)c(C)n4)n3)cc12 | 2.9 |  |  |  |  |  | 
2 | CNC(=O)c1nn(C)c2ccc(Nc3nccc(-n4cc(N[C@@H]5CCOC[C@@H]5N)cn4)n3)cc12 | 0.33 | 2.2 | 4 | 17 | 15000 | 220 | clearance [7]: 82 mL/min/kg; Vd [8]: 9.8 L/kg; bioavailability [9]: 1.8%; fraction unbound [10]: 0.28; clearance [11]: 16 mL/min/kg; Vd [12]: 5.7 L/kg; bioavailability [13]: 2%; fraction unbound [14]: 0.27; hepatocyte CLint [15]: < 1 µL/min/1e6 cells; CL [16]: 40%
3 | CNC(=O)c1nn(C)c2ccc(Nc3nccc(-n4cc(N[C@@H]5CCCNC5)c(C)n4)n3)cc12 | 0.73 | 0.6 | 3 | < 5 | > 39000 | 300 | clearance [7]: 78 mL/min/kg; Vd [8]: 19 L/kg; bioavailability [9]: 0%; fraction unbound [10]: 0.33
4 | CNC(=O)c1nn(C)c2ccc(Nc3nccc(-n4cc(CN(C)C)c(C)n4)n3)cc12 |  |  |  |  |  | 240 | 
5 | CNC(=O)c1nc(C)n2ccc(Nc3nccc(-n4cc(N[C@@H]5CCOC[C@@H]5N)cn4)n3)cc12 |  | 1.7 | 14 | 20 | > 39000 | 260 | 
6 | CNC(=O)c1nn(C)c2ccc(Nc3nccc(-n4cc(O[C@H]5CNC[C@H]5F)c(C)n4)n3)cc12 | 0.4 | 2.9 | 25 | 44 |  | 1400 | 
7 | CNC(=O)c1nc(C)n2ccc(Nc3nccc(-n4cc(NCCN)cn4)n3)cc12 | 0.23 |  | 2 | < 3 | > 39000 |  | 
8 | CNC(=O)c1nn(C)c2ccc(Nc3nccc(-n4cc(O[C@@H]5CCNC5)c(C)n4)n3)cc12 | 0.51 | 1.4 | 13 | < 5 | 5200 | 510 | 
9 | CNC(=O)c1nn(C)c2ccc(Nc3nccc(-n4cc(N[C@@H]5CCNC5)c(C)n4)n3)cc12 | 0.6 | 0.3 | 3 | < 10 | > 39000 | 170 | clearance [7]: 60 mL/min/kg; Vd [8]: 13 L/kg; bioavailability [9]: 0%; fraction unbound [10]: 0.24; pKa [17]: 9.5
10 | CNC(=O)c1nn(C)c2ccc(Nc3nccc(-n4cc(N[C@H]5CNC[C@@H]5F)c(C)n4)n3)cc12 | 0.3 | 1.7 | 8 | 28 | 19000 | 970 | pKa [17]: 7.8
11 | CNC(=O)c1nc(C)n2ccc(Nc3nccc(-n4cc(N[C@@H]5CCOC[C@@H]5N)c(C)n4)n3)cc12 | 3.2 | 1.6 | 6 | 32 | > 39000 | 810 | 
12 | CNC(=O)c1nn(C)c2ccc(Nc3nccc(-n4cc(O[C@@H]5CCCNC5)c(C)n4)n3)cc12 | 0.19 | 1.7 | 9 | 8 | 2500 | 350 | 
13 | CNC(=O)c1nc(C)n2ccc(Nc3nccc(-n4cc(OCCN)cn4)n3)cc12 | 0.88 | 0.6 | 14 | 7 | > 39000 |  | 

Further lines, with some results ahead:

Row | IC50 [1] [nM] | logD [2] | hepatocyte CLint [3] [µL/min/1e6 cells] | microsomal CLint [4] [µL/min/mg] | SMILES | IC50 [5] [nM] | GI50 [6] [nM] | other results
14 | 11 |  |  |  | CNC(=O)c1nn(C)c2ccc(Nc3nccc(-n4cc(N[C@H]5CCNC5)c(C)n4)n3)cc12 |  |  | 
15 | 0.2 | 3.1 | 17 | 129 | Cc1nnc(-c2nn(C)c3ccc(Nc4nccc(-n5cc(N[C@@H]6CCOC[C@@H]6N)c(C)n5)n4)cc23)o1 | 11000 | 1300 | 
16 | 0.22 | 2.4 | 8 | 71 | Cc1nn(-c2ccnc(Nc3ccc4c(c3)c(C(=O)C(F)(F)F)cn4C)n2)cc1N[C@@H]1CCOC[C@@H]1N | 4700 |  | 
17 | 1.5 | 0.7 | < 1 | 8 | CNC(=O)c1nn(C)c2ccc(Nc3nccc(-n4cc(NC5CNC5)c(C)n4)n3)cc12 |  |  | 
18 | 1.3 | 1.9 | 13 | < 3 | CNC(=O)c1nn(C)c2ccc(Nc3nccc(-n4cc(OC5CNC5)c(C)n4)n3)cc12 |  |  | 
19 | 0.34 | 2.3 | 8 | 28 | CNC(=O)c1nn(C)c2ccc(Nc3nccc(-n4cc(NCC5(N)CC5)c(C)n4)n3)cc12 |  | 2800 | clearance [7]: 13 mL/min/kg; Vd [8]: 1.3 L/kg; bioavailability [9]: 29%; fraction unbound [10]: 0.056
20 | 0.24 | 1.3 | 13 | 20 | CNC(=O)c1nc(C)n2ccc(Nc3nccc(-n4cc(CN(C)C)cn4)n3)cc12 | 7100 | 230 | 
21 | 7.9 | 2 |  |  | CNC(=O)c1nn(C)c2ccc(Nc3nccc(-n4cc(N[C@@H]5CCN(C)C5)c(C)n4)n3)cc12 |  |  | 
22 | 0.34 | 1.6 | 8 | 32 | CNC(=O)c1nn(C)c2ccc(Nc3nccc(-n4cc(N[C@@H]5CCOC[C@@H]5N)c(C)n4)n3)cc12 |  | 560 | clearance [7]: 76 mL/min/kg; Vd [8]: 5.4 L/kg; bioavailability [9]: 3.8%; fraction unbound [10]: 0.25
23 | 62 |  |  |  | Cc1nn(-c2ccnc(Nc3ccc4c(c3)c(Cl)nn4C)n2)cc1N[C@@H]1CCOC[C@@H]1N |  |  | 
24 |  |  |  | 37 | Cc1nn(-c2ccnc3[nH]c(-c4cccc5c4ccn5C)nc23)cc1CN(C)C |  |  | 
